From patent EP4610269A1, “UROKINASE PLASMINOGEN ACTIVATOR SURFACE RECEPTOR (UPAR) LIGANDS FOR DIAGNOSTIC OR THERAPEUTIC USE” (3B Pharmaceuticals GmbH, priority 2024, dated 2025)
Read-outs that look alike come from different tables or passages of the source. Where a SMILES comes first, the peptide text is derived from it. Bridges are numbered along the chain shown (N, C = ends). [ ]: non-standard residue; d: D form. The star is where a group is joined. DOTA = O=C(O)CN1CCN(CC(=O)O)CCN(CC(=O)*)CCN(CC(=O)O)CC1; Hyp = O=C(O)[C@@H]1C[C@@H](O)CN1; NMeI = CC[C@H](C)[C@H](NC)C(=O)O; αMeF = C[C@](N)(Cc1ccccc1)C(=O)O; LaDOTA = La(III) DOTA conjugate; Pentanoyl(4-Me) = CC(C)CCC(=O)*; Cit = NC(=O)NCCC[C@H](N)C(=O)O; Pip = O=C(O)[C@@H]1CCCCN1; hCys = N[C@@H](CCS)C(=O)O; Nva = CCC[C@H](N)C(=O)O; Pentanoyl = CCCCC(=O)*; Aib = CC(C)(N)C(=O)O; Butyryl = CCCC(=O)*; Sar = CNCC(=O)O

Columns and labels:
[1] = biological target: T1, uPAR-expressing HEC-265 human endometrial adenocarcinoma cells (Homo sapiens, UniProt Q03405); assay: Competitive FACS binding assay; settings: pIC50 category of FACS binding
T1 construct: Cell surface uPAR-expressing HEC-265 human endometrial adenocarcinoma cells; host or cells: HEC-265
T1 sequence (Q03405 23-335): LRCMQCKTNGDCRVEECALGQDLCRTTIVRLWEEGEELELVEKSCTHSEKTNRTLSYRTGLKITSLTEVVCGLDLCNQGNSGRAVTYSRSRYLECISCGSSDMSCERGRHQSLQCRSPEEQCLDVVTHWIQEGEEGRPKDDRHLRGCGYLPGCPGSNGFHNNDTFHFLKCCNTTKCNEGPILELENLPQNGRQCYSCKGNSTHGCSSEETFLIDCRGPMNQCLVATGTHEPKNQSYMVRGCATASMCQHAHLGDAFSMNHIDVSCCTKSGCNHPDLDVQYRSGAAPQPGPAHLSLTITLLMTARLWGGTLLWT
Procedure, shortened: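 Competitive displacement of a 10 nM biotinylated peptide from HEC-265 cells (1 h, 4 °C, PBS/1% BSA), detected via APC-streptavidin by flow cytometry. pIC50 from four-parameter logistic fit of median fluorescence versus concentration.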

human uPAR (uPAR-Fc) = biological target: T2, human uPAR (uPAR-Fc) (Homo sapiens, UniProt Q03405); assay: Surface plasmon resonance (SPR) assay, single cycle kinetics; format: binding; settings: pKD category for uPAR SPR activity assay, uPAR-Fc on Protein A-Chip, 25°C; for Kd: read-out: pKD CAT (converted)
T2 construct: comprising amino acids Leu23-Arg303 according to UniProt entry Q03405.1; purchased R&D Systems 10378-UK-100
T2 sequence (Q03405 23-303): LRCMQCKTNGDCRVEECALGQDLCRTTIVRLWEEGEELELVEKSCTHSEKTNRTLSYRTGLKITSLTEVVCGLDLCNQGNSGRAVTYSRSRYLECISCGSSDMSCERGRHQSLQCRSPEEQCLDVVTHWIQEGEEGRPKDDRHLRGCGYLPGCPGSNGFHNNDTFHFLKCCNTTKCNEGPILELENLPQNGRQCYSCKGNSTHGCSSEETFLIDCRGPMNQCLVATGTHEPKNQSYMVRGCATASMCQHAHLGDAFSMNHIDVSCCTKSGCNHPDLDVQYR
Procedure, shortened: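 uPAR-Fc (Leu23-Arg303 extracellular domains, human IgG1 Fc) captured on Protein A chip to ~2000 RU; single-cycle kinetics at 25°C in HEPES running buffer pH 7.4 with 0.1% DMSO. KD from double-referenced sensorgrams fitted to 1:1 Langmuir model, reported as pKD.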

Compound | IC50 [1] | Kd (human uPAR (uPAR-Fc)) | pIC50 CAT [1] | pKD CAT (human uPAR (uPAR-Fc)) | Kd (human uPAR (uPAR-Fc); single cycle kinetics)
CC[C@H](C)[C@@H]1NC(=O)[C@@H](C)NC(=O)[C@@H]2CCCN2C(=O)[C@H](Cc2ccccc2)NC(=O)[C@H](Cc2ccc(O)cc2)NC(=O)[C@H](CCC(N)=O)NC(=O)[C@H](CCCNC(N)=O)NC(=O)[C@@H](NC(=O)CCC(C)C)CSSC[C@@H](C(=O)O)NC(=O)[C@H](CC(C)C)NC1=O [UPAR-131, iHex-[Cys-Cit-Gln-Tyr-Phe-Pro-ala-Ile-Leu-Cys]-OH] ({Pentanoyl(4-Me)}-C[Cit]QYFP[dA]ILC-OH; disulfide 1-10) | ≥ 0.126 µM | > 0.1 µM | – | – | –
CC[C@H](C)[C@@H]1NC(=O)[C@@H](C)NC(=O)[C@@H]2CCCN2C(=O)[C@H](Cc2ccccc2)NC(=O)[C@H](Cc2ccc(O)cc2)NC(=O)[C@H](CCC(N)=O)NC(=O)[C@H](CCCCNC(=O)CN2CCN(CC(=O)O)CCN(CC(=O)O)CCN(CC(=O)O)CC2)NC(=O)[C@@H](NC(=O)CCC(C)C)CSSC[C@@H](C(N)=O)NC(=O)[C@H](CC(C)C)NC1=O [UPAR-157, iHex-[Cys-Lys(DOTA)-Gln-Tyr-Phe-Pro-ala-Ile-Leu-Cys]-NH2] ({Pentanoyl(4-Me)}-CK(DOTA)QYFP[dA]ILC-NH2; disulfide 1-10) | ≤ 0.01 µM | < 0.00158 µM | – | – | –
CCCCC(=O)N[C@H]1CSSC[C@@H](C(N)=O)NC(=O)[C@H](CCC)NC(=O)[C@H]([C@@H](C)CC)NC(=O)[C@@H]2C[C@@H](O)CN2C(=O)[C@@H]2CCCN2C(=O)[C@H](Cc2ccccc2)NC(=O)[C@H](CC(C)C)NC(=O)[C@H](CCC(N)=O)NC(=O)[C@H](CCCNC(=N)N)NC1=O [UPAR-195, Pent-[Cys-Arg-Gln-Leu-Phe-Pro-Hyp-Ile-Nva-Cys]-NH2] (Pentanoyl-CRQLFP[Hyp]I[Nva]C-NH2; disulfide 1-10) | 0.0126 to 0.0316 µM | 0.00158 to 0.01 µM | – | – | –
CCCCC(=O)N[C@H]1CSSC[C@@H](C(N)=O)NC(=O)[C@H](CCC)NC(=O)[C@H]([C@@H](C)CC)NC(=O)CN(C)C(=O)[C@@H]2CCCN2C(=O)[C@H](Cc2ccccc2)NC(=O)[C@H](Cc2ccc(O)cc2)NC(=O)[C@H](CCCCNC(=O)CN2CCN(CC(=O)O)CCN(CC(=O)O)CCN(CC(=O)O)CC2)NC(=O)[C@H](CCCNC(N)=O)NC1=O [UPAR-177, Pent-[Cys-Cit-Lys(DOTA)-Tyr-Phe-Pro-Nmg-Ile-Nva-Cys]-NH2] (Pentanoyl-C[Cit]K(DOTA)YFP[Sar]I[Nva]C-NH2; disulfide 1-10) | ≤ 0.01 µM | 0.00158 to 0.01 µM | – | – | –
CCCC(=O)N[C@H]1CSSC[C@@H](C(N)=O)NC(=O)[C@H](CC(C)C)NC(=O)[C@H]([C@@H](C)CC)NC(=O)[C@@H](C)NC(=O)[C@@H]2CCCN2C(=O)[C@H](Cc2ccccc2)NC(=O)[C@H](Cc2ccc(O)cc2)NC(=O)[C@H](CCC(N)=O)NC(=O)[C@H](CCCNC(N)=O)NC1=O [UPAR-139, But-[Cys-Cit-Gln-Tyr-Phe-Pro-ala-Ile-Leu-Cys]-NH2] (Butyryl-C[Cit]QYFP[dA]ILC-NH2; disulfide 1-10) | 0.0126 to 0.0316 µM | 0.00158 to 0.01 µM | – | – | –
CC[C@H](C)[C@@H]1NC(=O)[C@@H](C)NC(=O)[C@@H]2CCCCN2C(=O)[C@H](Cc2ccccc2)NC(=O)[C@H](Cc2ccc(O)cc2)NC(=O)[C@H](CCC(N)=O)NC(=O)[C@H](CCCNC(N)=O)NC(=O)[C@@H](NC(=O)CCC(C)C)CSSC[C@@H](C(N)=O)NC(=O)[C@H](CC(C)C)NC1=O [UPAR-232, iHex-[Cys-Cit-Gln-Tyr-Phe-Pip-ala-Ile-Leu-Cys]-NH2] ({Pentanoyl(4-Me)}-C[Cit]QYF[Pip][dA]ILC-NH2; disulfide 1-10) | ≤ 0.01 µM | 0.00158 to 0.01 µM | – | – | –
CC[C@H](C)[C@H]1C(=O)N[C@@H](CC(C)C)C(=O)N[C@H](C(N)=O)CSSC[C@H](NC(=O)CCC(C)C)C(=O)N[C@@H](CCCNC(N)=O)C(=O)N[C@@H](CCC(N)=O)C(=O)N[C@@H](Cc2ccc(O)cc2)C(=O)N[C@@H](Cc2ccccc2)C(=O)N2CCC[C@H]2C(=O)N[C@H](C)C(=O)N1C [UPAR-340, iHex-[Cys-Cit-Gln-Tyr-Phe-Pro-ala-Nmi-Leu-Cys]-NH2] ({Pentanoyl(4-Me)}-C[Cit]QYFP[dA][NMeI]LC-NH2; disulfide 1-10) | ≥ 0.126 µM | 0.01 to 0.1 µM | – | – | –
Pent-[Cys-Cit-Lys(LaDOTA)-Tyr-Phe-Pro-Aib-Ile-Nva-Cys]-NH2 (Pentanoyl-C[Cit]K(LaDOTA)YFP[Aib]I[Nva]C-NH2; disulfide 1-10; not fully specified; also: La(III) complexed by DOTA) [UPAR-279] | – | – | A (pIC50 values ≥8.0) | A (pKD values ≥ 8.8) | –
CCCCC(=O)N[C@H]1CSSC[C@@H](C(N)=O)NC(=O)[C@H](CCC)NC(=O)[C@H]([C@@H](C)CC)NC(=O)[C@@H]2C[C@@H](O)CN2C(=O)[C@@H]2CCCN2C(=O)[C@H](Cc2ccccc2)NC(=O)[C@](C)(Cc2ccccc2)NC(=O)[C@H](CCC(N)=O)NC(=O)[C@H](CCCNC(=N)N)NC1=O [UPAR-478, Pent-[Cys-Arg-Gln-Amf-Phe-Pro-Hyp-Ile-Nva-Cys]-NH2] (Pentanoyl-CRQ[αMeF]FP[Hyp]I[Nva]C-NH2; disulfide 1-10) | 0.0398 to 0.1 µM | – | – | – | 0.01 to 0.1 µM
CCCCC(=O)N[C@H]1CSSC[C@@H](C(N)=O)NC(=O)[C@H](CCC)NC(=O)[C@H]([C@@H](C)CC)NC(=O)[C@@H]2C[C@@H](O)CN2C(=O)[C@@H]2C[C@@H](O)CN2C(=O)[C@H](Cc2ccccc2)NC(=O)[C@H](Cc2ccc(O)cc2)NC(=O)[C@H](CCCCNC(=O)CN2CCN(CC(=O)O)CCN(CC(=O)O)CCN(CC(=O)O)CC2)NC(=O)[C@H]([C@@H](C)O)NC1=O [UPAR-135, Pent-[Cys-Thr-Lys(DOTA)-Tyr-Phe-Hyp-Hyp-Ile-Nva-Cys]-NH2] (Pentanoyl-CTK(DOTA)YF[Hyp][Hyp]I[Nva]C-NH2; disulfide 1-10) | ≤ 0.01 µM | < 0.00158 µM | – | – | –
Pent-[Cys-Cit-Lys(LaDOTA)-Ppa-Phe-Pro-Hyp-Ile-Nva-Cys]-NH2 [UPAR-296] | – | – | A (pIC50 values ≥8.0) | A (pKD values ≥ 8.8) | –
CCCCC(=O)N[C@H]1CSSC[C@@H](C(N)=O)NC(=O)[C@H](CCC)NC(=O)[C@H]([C@@H](C)CC)NC(=O)[C@@H]2C[C@@H](O)CN2C(=O)[C@@H]2CCCN2C(=O)[C@H](Cc2ccccc2)NC(=O)[C@H](Cc2ccc(O)cc2)NC(=O)[C@H](CCC(N)=O)NC(=O)[C@H](CC(C)C)NC1=O [UPAR-391, Pent-[Cys-Leu-Gln-Tyr-Phe-Pro-Hyp-Ile-Nva-Cys]-NH2] (Pentanoyl-CLQYFP[Hyp]I[Nva]C-NH2; disulfide 1-10) | ≤ 0.01 µM | – | – | – | < 0.00158 µM
CCCCC(=O)N[C@H]1CCSSC[C@@H](C(N)=O)NC(=O)[C@H](CCC)NC(=O)[C@H]([C@@H](C)CC)NC(=O)[C@@H]2C[C@@H](O)CN2C(=O)[C@@H]2CCCN2C(=O)[C@H](Cc2ccccc2)NC(=O)[C@H](Cc2ccc(O)cc2)NC(=O)[C@H](CCC(N)=O)NC(=O)[C@H](CCCNC(=N)N)NC1=O [UPAR-300, Pent-[Hcy-Arg-Gln-Tyr-Phe-Pro-Hyp-Ile-Nva-Cys]-NH2] (Pentanoyl-[hCys]RQYFP[Hyp]I[Nva]C-NH2; disulfide 1-10) | 0.0126 to 0.0316 µM | 0.00158 to 0.01 µM | – | – | –
CCCCC(=O)N[C@H]1CSSC[C@@H](C(N)=O)NC(=O)[C@H](CCC)NC(=O)[C@H]([C@@H](C)CC)NC(=O)C(C)(C)NC(=O)[C@@H]2CCCN2C(=O)[C@H](Cc2ccccc2)NC(=O)[C@H](Cc2ccc(O)cc2)NC(=O)[C@H](CCCCNC(=O)CN2CCN(CC(=O)O)CCN(CC(=O)O)CCN(CC(=O)O)CC2)NC(=O)[C@H](CCCNC(N)=O)NC1=O [UPAR-299, Pent-[Cys-Cit-Lys(DOTA)-Tyr-Phe-Pro-Aib-Ile-Nva-Cys]-NH2] (Pentanoyl-C[Cit]K(DOTA)YFP[Aib]I[Nva]C-NH2; disulfide 1-10) | ≤ 0.01 µM | < 0.00158 µM | – | – | –
